ChEMBL document CHEMBL1201862, “PubChem BioAssay data set” (2004)
Structures can show the parent of a compound that is named as a salt.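 Values below derive from 48-hour exposures of cells grown in 96-well plates, with endpoints linearly interpolated between the two concentrations bracketing the appropriate inhibition level. GI50 = concentration required for 50% inhibition of growth.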 Calls of active or inactive are those of the source. Rule as the data show it: active = GI50 up to about 1.1 µM and inactive = higher.

Assays:
Experiment in all cases: DTP human tumour cell line panel, 48 h
786-0 = test system: 786-0
EKVX = test system: EKVX
HCC 2998 = test system: HCC 2998
IGROV-1 = test system: IGROV-1
KM12 = test system: KM12
M14 = test system: M14
MDA-N = test system: MDA-N
NCI-H522 = test system: NCI-H522
OVCAR-3 = test system: OVCAR-3
OVCAR-5 = test system: OVCAR-5
RXF 393 = test system: RXF 393
SK-MEL-5 = test system: SK-MEL-5
SNB-19 = test system: SNB-19
SNB-75 = test system: SNB-75
SW-620 = test system: SW-620
TK-10 = test system: TK-10
U-251 = test system: U-251
UACC-257 = test system: UACC-257
UACC-62 = test system: UACC-62
MCF7 = test system: MCF7

Measured: GI50

N#Cc1c(N2CCCC2)ncn(-c2ccccc2)c1=O
inactive: 786-0 > 100 µM | EKVX > 100 µM | HCC 2998 > 100 µM | IGROV-1 > 100 µM | KM12 > 100 µM | M14 > 100 µM | MDA-N > 100 µM | NCI-H522 > 100 µM | OVCAR-3 > 100 µM | OVCAR-5 > 100 µM | RXF 393 > 100 µM | SK-MEL-5 > 100 µM | SNB-19 > 100 µM | SNB-75 > 100 µM | SW-620 > 100 µM | TK-10 > 100 µM | U-251 > 100 µM | UACC-257 > 100 µM | UACC-62 > 100 µM

COC(=O)c1cc(S(=O)(=O)NC2=NNC(C)CN2)c(S)cc1Cl (stereo not drawn)
inactive: 786-0 56.1 µM | EKVX 90.2 µM | HCC 2998 42.3 µM | IGROV-1 29.6 µM | KM12 40.4 µM | M14 31.5 µM | MCF7 42 µM | MDA-N 35.3 µM | NCI-H522 19.5 µM | OVCAR-3 38.3 µM | OVCAR-5 65.3 µM | SK-MEL-5 26.4 µM | SNB-19 85.1 µM | SNB-75 24.7 µM | SW-620 42.3 µM | TK-10 > 100 µM | U-251 37.4 µM | UACC-257 > 100 µM | UACC-62 47 µM

CC1CC/C(=C\c2ccc(F)cc2)C(=O)/C1=C/c1ccc(F)cc1 (stereo not drawn)
inactive: 786-0 2.9 µM | EKVX 3.67 µM | IGROV-1 3.04 µM | KM12 2.97 µM | M14 6.76 µM | MCF7 4.21 µM | MDA-N 3.54 µM | OVCAR-3 5.7 µM | OVCAR-5 4.13 µM | RXF 393 3.17 µM | SK-MEL-5 4.57 µM | SNB-19 10.1 µM | SNB-75 2.04 µM | SW-620 6.04 µM | TK-10 3.85 µM | U-251 4.95 µM | UACC-257 15.7 µM | UACC-62 11.6 µM

O=c1[nH]c(=O)n(C2CC(O)C(CO)O2)cc1Oc1ccccc1 (stereo not drawn)
inactive: 786-0 > 100 µM | EKVX > 100 µM | IGROV-1 > 100 µM | KM12 > 100 µM | M14 > 100 µM | MCF7 > 100 µM | MDA-N > 100 µM | NCI-H522 > 100 µM | OVCAR-3 > 100 µM | OVCAR-5 > 100 µM | RXF 393 > 100 µM | SK-MEL-5 > 100 µM | SNB-19 > 100 µM | SNB-75 > 100 µM | TK-10 > 100 µM | U-251 > 100 µM | UACC-257 > 100 µM | UACC-62 > 100 µM

Cn1c(N)cc(=O)nc1N
inactive: 786-0 > 100 µM | EKVX > 100 µM | HCC 2998 > 100 µM | IGROV-1 > 100 µM | KM12 > 100 µM | M14 > 100 µM | MCF7 > 100 µM | MDA-N > 100 µM | NCI-H522 > 100 µM | OVCAR-3 > 100 µM | OVCAR-5 > 100 µM | SK-MEL-5 > 100 µM | SNB-19 > 100 µM | SNB-75 > 100 µM | SW-620 > 100 µM | TK-10 > 100 µM | U-251 > 100 µM | UACC-62 > 100 µM

C[C@@H](Oc1ccc(Oc2cnc3ccc(Cl)cc3n2)cc1)C(=O)O [R(+)XK469]
inactive: 786-0 > 100 µM | IGROV-1 83 µM | KM12 76.6 µM | M14 > 100 µM | MCF7 39 µM | MDA-N > 100 µM | NCI-H522 19.1 µM | OVCAR-3 95.7 µM | OVCAR-5 > 100 µM | RXF 393 > 100 µM | SK-MEL-5 67.5 µM | SNB-19 > 100 µM | SNB-75 > 100 µM | SW-620 85.3 µM | TK-10 > 100 µM | U-251 > 100 µM | UACC-257 > 100 µM | UACC-62 66.7 µM

CN(C)CCOc1ccc(/C(=C(/CCCl)c2ccccc2)c2ccccc2)cc1 [TOREMIFENE CITRATE]
inactive: 786-0 17.8 µM | EKVX 15.9 µM | HCC 2998 5.16 µM | IGROV-1 21.4 µM | KM12 17.7 µM | M14 14.1 µM | MCF7 1.58 µM | MDA-N 16.4 µM | NCI-H522 16.5 µM | OVCAR-3 11.9 µM | OVCAR-5 18.1 µM | SK-MEL-5 16 µM | SNB-19 15 µM | SNB-75 11.9 µM | SW-620 16.5 µM | TK-10 15.3 µM | U-251 17.8 µM | UACC-257 20.3 µM
